Earlier results in patent publication US20230000814A1, “PHARMACEUTICAL COMPOSITION COMPRISING STEROID COMPOUND AND OLOPATADINE” (TOKO YAKUHIN KOGYO CO., LTD., priority 2019, published 2023).
Read-outs that look alike come from different tables or passages of the source.

Structure (SMILES): CN(C)CC/C=C1/c2ccccc2COc2ccc(CC(=O)O)cc21 [olopatadine, Olopatadine]
- solubility of olopatadine (around neutral pH): very low
- solubility of olopatadine (concentration 0.2% or more as olopatadine free base, solution having pH of 5 or higher): not soluble
